From patent US8354422B2, “Pyrimidine inhibitors of kinase activity” (Abbott Laboratories Inc., priority 2009, dated 2013) come the findings set out here.

For this experiment, the target named is T1, C-terminal GST-tagged, recombinant, human IGF-1R, amino acids 954-1367 (Homo sapiens, UniProt P08069).
T1 construct: human IGF-1R, amino acids 954-1367 expressed by baculovirus in Sf21 cells; GST (C); purchased Cell Signaling Technology; host or cells: baculovirus in Sf21 cells
Description: IGF-1R kinase activity, homogenous time-resolved fluorescence (HTRF) in vitro kinase assay. It counts as biochemical. Particulars: IGF-1R kinase HTRF assay, ATP 50 μM, biotinylated peptide substrate 0.5 μM, 60 minutes at room temperature. How it is done: IGF-1R kinase activity was assayed by a homogenous time-resolved fluorescence (HTRF) in vitro kinase assay (Mathis, G., HTRF(R) Technology. J Biomol Screen, 1999. 4(6): p. 309-314). Specifically, 10 μL C-terminal GST-tagged, recombinant, human IGF-1R, amino acids 954-1367 expressed by baculovirus in Sf21 cells (Cell Singaling Technology) was mixed with 10 μL inhibitor (various concentrations, 2% final DMSO) and 10 μL of ATP (50 μM final concentration) in reaction buffer (50 mM HEPES, pH […], 2 mM MnCl2, 0.1% BSA and 1 mM DTT, 40 μL final volume). The reaction was initiated by addition of 10 μL of biotinylated peptide substrate (Biotin-Ahx-[…], 0.5 μM final concentration) in a black 384-well plate (Packard). After 60 minutes incubation at room temperature, the reaction was quenched by addition of 60 μL stop/revelation buffer to give 30 mM EDTA, 1 μg/mL streptavidin-APC (Prozyme), 50 ng/mL anti-phosphotyrosine mAb PT66-K Europium Cryptate, 30 mM HEPES, pH 7.5, 120 mM KF, 0.005% Tween-20, 0.05% BSA). The quenched reaction was allowed to stand at room temperature for 1 hour and then read in a time-resolved fluorescence detector (Envision, Perkin Elmer) at 615 nm and 665 nm simultaneously. The ratio between the signal of 615 nm and 665 nm was used in the calculation of the IC50.
(In general: TR-FRET usually uses a lanthanide donor and a delayed reading to cut background.)

A value given as a limit tells only on which side of the number the result lay.

T1 sequence (P08069 954-1367): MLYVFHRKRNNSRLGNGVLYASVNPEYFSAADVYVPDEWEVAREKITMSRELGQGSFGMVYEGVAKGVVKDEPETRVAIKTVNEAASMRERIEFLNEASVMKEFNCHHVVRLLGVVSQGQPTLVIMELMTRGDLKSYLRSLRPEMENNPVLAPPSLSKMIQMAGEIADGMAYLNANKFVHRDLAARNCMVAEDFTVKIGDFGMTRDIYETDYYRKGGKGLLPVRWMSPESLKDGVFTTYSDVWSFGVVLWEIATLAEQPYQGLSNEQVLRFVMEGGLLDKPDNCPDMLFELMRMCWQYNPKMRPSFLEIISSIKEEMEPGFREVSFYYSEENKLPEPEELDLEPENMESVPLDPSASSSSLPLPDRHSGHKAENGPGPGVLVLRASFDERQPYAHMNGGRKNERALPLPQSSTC

A word on the IC50: it is the point on the concentration scale where inhibition reaches its midpoint. For the compound `CN(C)CCc1cccc(Nc2nccc(-c3c(-c4ccc(OCc5ccccc5)c(Cl)c4)nc4ccccn34)n2)c1` [Example 11, 4-{2-[4-(benzyloxy)-3-chlorophenyl]imidazo[1,2-a]pyridin-3-yl}-N-{3-[2-(dimethylamino)ethyl]phenyl}pyrimidin-2-amine], the 50% inhibitory concentration (IC50) was 0.101 to 0.5 µM.
On to `COc1ccc(C(F)(F)F)cc1Nc1nccc(-c2c(-c3ccc(OCc4ccccc4)cc3)nc3ccccn23)n1` [Example 41, 4-{2-[4-(benzyloxy)phenyl]imidazo[1,2-a]pyridin-3-yl}-N-[2-methoxy-5-(trifluoromethyl)phenyl]pyrimidin-2-amine], for which the 50% inhibitory concentration (IC50) was greater than 1 µM.
With `COc1cc(-c2nc3ccccn3c2-c2ccnc(Nc3cccc(CCN(C)C)c3)n2)ccc1OCc1ccccc1` [Example 12, 4-{2-[4-(benzyloxy)-3-methoxyphenyl]imidazo[1,2-a]pyridin-3-yl}-N-{3-[2-(dimethylamino)ethyl]phenyl}pyrimidin-2-amine] the figure was 0.101 to 0.5 µM; with `COc1cc(NCC(C)(C)O)ccc1Nc1nccc(-c2c(-c3ccc(OCc4ccccc4)c(OC)c3)nc3ccccn23)n1` [Example 45, 1-({4-[(4-{2-[4-(benzyloxy)-3-methoxyphenyl]imidazo[1,2-a]pyridin-3-yl}pyrimidin-2-yl)amino]-3-methoxyphenyl}amino)-2-methylpropan-2-ol], 0.101 to 0.5 µM; with `Cc1cc(Nc2nccc(-c3c(-c4ccc(OCc5ccccc5)cc4)nc4ccccn34)n2)n[nH]1` [Example 14, 4-{2-[4-(benzyloxy)phenyl]imidazo[1,2-a]pyridin-3-yl}-N-(5-methyl-1H-pyrazol-3-yl)pyrimidin-2-amine], greater than 1 µM.
In the case of `COc1cc(-c2nc3ccccn3c2-c2ccnc(Nc3cnn(CCN4CCCCC4)c3)n2)ccc1OCc1ccccc1` [Example 54, 4-{2-[4-(benzyloxy)-3-methoxyphenyl]imidazo[1,2-a]pyridin-3-yl}-N-[1-(2-piperidin-1-ylethyl)-1H-pyrazol-4-yl]pyrimidin-2-amine], the IC50 was in the range of 0.101 to 0.5 µM.
With `COc1cc(-c2nc3ccccn3c2-c2ccnc(Nc3ccc(CCN4CCCC4)cc3)n2)ccc1OCc1ccccc1` [Example 23, 4-{2-[4-(benzyloxy)-3-methoxyphenyl]imidazo[1,2-a]pyridin-3-yl}-N-[4-(2-pyrrolidin-1-ylethyl)phenyl]pyrimidin-2-amine] the figure was 0.025 to 0.1 µM.
With `COc1ccccc1Nc1nccc(-c2c(-c3ccc(OCc4ccccc4)cc3)nc3ccccn23)n1` [Example 3, 4-{2-[4-(benzyloxy)phenyl]imidazo[1,2-a]pyridin-3-yl}-N-(2-methoxyphenyl)pyrimidin-2-amine] the figure was greater than 1 µM; with `COc1cc(-c2nc3ccccn3c2-c2ccnc(Nc3cnn(CCO)c3)n2)ccc1OCc1ccccc1` [Example 47, 2-{4-[(4-{2-[4-(benzyloxy)-3-methoxyphenyl]imidazo[1,2-a]pyridin-3-yl}pyrimidin-2-yl)amino]-1H-pyrazol-1-yl}ethanol], 0.025 to 0.1 µM.
With `COc1cc(N2CCC(N(C)C)CC2)ccc1Nc1nccc(-c2c(-c3ccc(OCc4ccccc4)c(OC)c3)nc3ccccn23)n1` [Example 33, 4-{2-[4-(benzyloxy)-3-methoxyphenyl]imidazo[1,2-a]pyridin-3-yl}-N-{4-[4-(dimethylamino)piperidin-1-yl]-2-methoxyphenyl}pyrimidin-2-amine] the figure was 0.025 to 0.1 µM.
Regarding `CS(=O)(=O)c1ccc(Nc2nccc(-c3c(-c4ccc(OCc5ccccc5)cc4)nc4ccccn34)n2)cc1` [Example 6, 4-{2-[4-(benzyloxy)phenyl]imidazo[1,2-a]pyridin-3-yl}-N-[4-(methylsulfonyl)phenyl]pyrimidin-2-amine], the concentration for half-maximal inhibition (IC50) was greater than 1 µM.
As for `COc1cc(Cl)ccc1Nc1nccc(-c2c(-c3ccc(OCc4ccccc4)cc3)nc3ccccn23)n1` [Example 22, 4-{2-[4-(benzyloxy)phenyl]imidazo[1,2-a]pyridin-3-yl}-N-(4-chloro-2-methoxyphenyl)pyrimidin-2-amine], the IC50 was greater than 1 µM.
With `COc1cc(-c2nc3sccn3c2-c2ccnc(Nc3cccc(CCN(C)C)c3)n2)ccc1OCc1ccccc1` [Example 85, 4-{6-[4-(benzyloxy)-3-methoxyphenyl]imidazo[2,1-b][1,3]thiazol-5-yl}-N-{3-[2-(dimethylamino)ethyl]phenyl}pyrimidin-2-amine] the figure was 0.025 to 0.1 µM.
Next, `COc1cc(N(C)C)ccc1Nc1nccc(-c2c(-c3ccc(OCc4ccccc4)c(OC)c3)nc3ccccn23)n1` [Example 42, N^1-(4-{2-[4-(benzyloxy)-3-methoxyphenyl]imidazo[1,2-a]pyridin-3-yl}pyrimidin-2-yl)-2-methoxy-N^4,N^4-dimethylbenzene-1,4-diamine]: 0.101 to 0.5 µM; `COc1ccc(C(F)(F)F)cc1Nc1nccc(-c2c(-c3ccc(OCc4ccccc4)c(OC)c3)nc3ccccn23)n1` [Example 40, 4-{2-[4-(benzyloxy)-3-methoxyphenyl]imidazo[1,2-a]pyridin-3-yl}-N-[2-methoxy-5-(trifluoromethyl)phenyl]pyrimidin-2-amine]: greater than 1 µM.
With `COc1ccc(CCN(C)C)cc1Nc1nccc(-c2c(-c3ccc(OCc4ccccc4)c(OC)c3)nc3ccccn23)n1` [Example 59, 4-{2-[4-(benzyloxy)-3-methoxyphenyl]imidazo[1,2-a]pyridin-3-yl}-N-{5-[2-(dimethylamino)ethyl]-2-methoxyphenyl}pyrimidin-2-amine] the figure was 0.025 to 0.1 µM.
`COc1cc(-c2nc3ccccn3c2-c2ccnc(Nc3ccc(NC(=O)CN(C)C)cc3)n2)ccc1OCc1ccccc1` [Example 65, N^1-{4-[(4-{2-[4-(benzyloxy)-3-methoxyphenyl]imidazo[1,2-a]pyridin-3-yl}pyrimidin-2-yl)amino]phenyl}-N^2,N^2-dimethylglycinamide]: the IC50 fell in the range of 0.025 to 0.1 µM.
Next, `FC(F)(F)Oc1cc(-c2nc3ccccn3c2-c2ccnc(Nc3cccc(CCN4CCCC4)c3)n2)ccc1OCc1ccccc1` [Example 58, 4-{2-[4-(benzyloxy)-3-(trifluoromethoxy)phenyl]imidazo[1,2-a]pyridin-3-yl}-N-[3-(2-pyrrolidin-1-ylethyl)phenyl]pyrimidin-2-amine]: greater than 1 µM; `c1ccc(COc2ccc(-c3nc4ccccn4c3-c3ccnc(Nc4cc(C5CC5)n[nH]4)n3)cc2)cc1` [Example 15, 4-{2-[4-(benzyloxy)phenyl]imidazo[1,2-a]pyridin-3-yl}-N-(3-cyclopropyl-1H-pyrazol-5-yl)pyrimidin-2-amine]: greater than 1 µM.
With `COc1cc(-c2nc3ccccn3c2-c2ccnc(Nc3cccc(CCN4CCCC4)c3)n2)ccc1OCc1ccccc1` [Example 24, 4-{2-[4-(benzyloxy)-3-methoxyphenyl]imidazo[1,2-a]pyridin-3-yl}-N-[3-(2-pyrrolidin-1-ylethyl)phenyl]pyrimidin-2-amine] the figure was 0.025 to 0.1 µM.
For the compound `CN(C)CCc1cccc(Nc2nccc(-c3c(-c4ccc(OCc5ccccc5F)cc4)nc4ccccn34)n2)c1` [Example 18, N-{3-[2-(dimethylamino)ethyl]phenyl}-4-(2-{4-[(2-fluorobenzyl)oxy]phenyl}imidazo[1,2-a]pyridin-3-yl)pyrimidin-2-amine], the concentration for half-maximal inhibition (IC50) lay in the range of 0.101 to 0.5 µM.
Next, `COc1cc(N2CCSCC2)ccc1Nc1nccc(-c2c(-c3ccc(OCc4ccccc4)c(OC)c3)nc3ccccn23)n1` [Example 51, 4-{2-[4-(benzyloxy)-3-methoxyphenyl]imidazo[1,2-a]pyridin-3-yl}-N-(2-methoxy-4-thiomorpholin-4-ylphenyl)pyrimidin-2-amine]: 0.501 to 1 µM.
